The values below are quoted from earlier work in patent US20220257614A1, “USE OF 12-LIPOXYGENASE INHIBITORS IN THE TREATMENT OF COVID-19” (New York Medical College, priority 2021, published 2022).

The series has as its system human islets. The conditions noted are these: in vitro; background statement.

As for `COc1cccc(CNc2ccc(S(=O)(=O)Nc3nc4ccccc4s3)cc2)c1O` [ML-355], the “protection of human islets from inflammatory injury” value is “protect human islets from inflammatory injury”.
